From PubChem BioAssay AID330 (DTP/NCI, 2004) come the findings set out here.

The subject of the test is P388 leukemia ip, CD2F1 mice, survival T/C. As to the kind of experiment: NCI In Vivo Anticancer Drug Screen. Data for tumor model P388 Leukemia (intraperitoneal) in CD2F1 (CDF1) mice. As to conditions: endpoint: median survival time, higher = longer survival. The gist of the method: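 Mice carrying the transplanted tumor received test compound or vehicle. Survival was recorded in each group, and the value is the treated-group measurement divided by that of the vehicle-treated control group.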

[1] abbreviates: dose: 50.0 mg/kg/injection, schedule: Q01DX009 (ip), vehicle: saline.
Where [2] appears, read: dose: 100.0 mg/kg/injection, schedule: Q01DX009 (ip), vehicle: saline.
[3] abbreviates: dose: 200.0 mg/kg/injection, schedule: Q01DX009 (ip), vehicle: saline.
Setting [4] is: dose: 60.0 mg/kg/injection, schedule: Q01DX005 (ip), vehicle: saline with Tween-80.
Where [5] appears, read: dose: 120.0 mg/kg/injection, schedule: Q01DX005 (ip), vehicle: saline with Tween-80.
[6] abbreviates: dose: 240.0 mg/kg/injection, schedule: Q01DX005 (ip), vehicle: saline with Tween-80.
Setting [7] is: dose: 100.0 mg/kg/injection, schedule: Q04DX003 (ip), vehicle: Klucel (hydroxypropylcellulose) (HPC).
Where [8] appears, read: dose: 200.0 mg/kg/injection, schedule: Q04DX003 (ip), vehicle: Klucel (hydroxypropylcellulose) (HPC).
[9] abbreviates: dose: 200.0 mg/kg/injection, schedule: Q01DX001 (ip), vehicle: Klucel (hydroxypropylcellulose) (HPC).
Where [10] appears, read: dose: 50.0 mg/kg/injection, schedule: Q01DX009 (ip), vehicle: saline with Tween-80.
[11] abbreviates: dose: 100.0 mg/kg/injection, schedule: Q01DX009 (ip), vehicle: saline with Tween-80.
[12] abbreviates: dose: 200.0 mg/kg/injection, schedule: Q01DX009 (ip), vehicle: saline with Tween-80.
[13] abbreviates: dose: 100.0 mg/kg/injection, schedule: Q01DX005 (ip), vehicle: saline with Tween-80.
Setting [14] is: dose: 50.0 mg/kg/injection, schedule: Q01DX005 (ip), vehicle: saline with Tween-80.

Where “and” joins values, the source holds several entries; their conditions need not be identical. Equal values may be shown once. Inconclusive results and toxic doses are left out.

For `COc1cccc2c1C(=O)c1c(O)c3c(c(O)c1C2=O)C[C@@](O)(/C(CO)=N/NC(=O)c1ccc(Cl)c(Cl)c1)C[C@@H]3OC1CC(N)C(O)C(C)O1` (stereo partly specified), the T/C (dose: 0.12 mg/kg/injection, schedule: Q01DX009 (ip), vehicle: water) was 116 % of control; the T/C (dose: 1.0 mg/kg/injection, schedule: Q01DX009 (ip), vehicle: water) is 153 % of control and 172 % of control; the T/C (dose: 1.56 mg/kg/injection, schedule: Q04DX003 (ip), vehicle: water) is 108 % of control; the T/C (dose: 2.0 mg/kg/injection, schedule: Q01DX009 (ip), vehicle: water) was 154 % of control and 176 % of control; the T/C (dose: 2.0 mg/kg/injection, schedule: Q04DX003 (ip), vehicle: saline) is 99 % of control and 105 % of control and 118 % of control; the T/C (dose: 3.13 mg/kg/injection, schedule: Q04DX003 (ip), vehicle: water) is 104 % of control and 121 % of control. Also, the T/C runs as follows: (dose: 4.0 mg/kg/injection, schedule: Q01DX009 (ip), vehicle: water) 202 % of control and 205 % of control; (dose: 4.0 mg/kg/injection, schedule: Q04DX003 (ip), vehicle: saline) 108 % of control and 116 % of control; (dose: 6.25 mg/kg/injection, schedule: Q04DX003 (ip), vehicle: water) 155 % of control; (dose: 8.0 mg/kg/injection, schedule: Q01DX009 (ip), vehicle: water) 109 % of control and 241 % of control; (dose: 25.0 mg/kg/injection, schedule: Q04DX003 (ip), vehicle: water) 166 % of control and 167 % of control; (dose: 100.0 mg/kg/injection, schedule: Q04DX003 (ip), vehicle: water) 124 % of control. Further, the T/C runs as follows: (dose: 512.0 mg/kg/injection, schedule: Q04DX003 (ip), vehicle: saline) 99 % of control; (dose: 1024.0 mg/kg/injection, schedule: Q04DX003 (ip), vehicle: saline) 90 % of control.

As to `CC1(C)OC2(CC1C1(C)C=CC(=O)O1)CC1C(O)(CCC34CC13C(=O)OC4c1ccoc1)O2` (stereo unspecified), the T/C under setting [1] is 100 % of control, the T/C under setting [2] is 95 % of control and the T/C under setting [3] is 104 % of control.

On to `O=C1C(CN2CCCCC2)=C(O)C(c2ccccc2)N1c1ccccc1` (stereo unspecified), for which the T/C was 96 % of control under setting [4], 95 % of control under setting [5] and 97 % of control under setting [6].

Take `CC1CC(C)(C)OB(OCCc2ccc(Cl)cc2Cl)O1` (stereo unspecified): the T/C reads like this: under setting [1], 99 % of control; under setting [2], 102 % of control; under setting [3], 100 % of control.

Turning to `O=C(O)c1c(Cl)c(Cl)c(Cl)c(Cl)c1-c1c2ccc(=O)cc-2oc2cc(O)ccc12`, the T/C was 100 % of control under setting [4], 100 % of control under setting [5] and 96 % of control under setting [6].

As for `Nc1cccc(SC2CC(=O)N(c3ccc4c(c3)OCO4)C2=O)c1` (stereo unspecified), the T/C was 92 % of control under setting [7] and 101 % of control under setting [8].

On to `COC1=CC(=O)c2cc3ccc(OC)c(N)c3nc2C1=O`, for which the T/C by setting is: (dose: 100.0 mg/kg/injection, schedule: Q01DX001 (ip), vehicle: Klucel (hydroxypropylcellulose) (HPC)) 100 % of control; under setting [9], 102 % of control.

Turning to `c1ccc(Cc2ccccc2)cc1`, the T/C was 105 % of control under setting [10], 110 % of control under setting [11] and 109 % of control under setting [12].

Turning to `COc1ccc2c(c1)n([O-])c1ccccc1[n+]2=O`, the T/C (dose: 25.0 mg/kg/injection, schedule: Q01DX005 (ip), vehicle: saline with Tween-80) is 122 % of control; the T/C under setting [13] was 157 % of control and 172 % of control.

Consider `O=C(NC(=O)c1ccccc1Cl)Nc1ccc(C(O)(C(F)(F)F)C(F)(F)F)cc1`, for which the T/C is 104 % of control under setting [14]; 102 % of control under setting [13]; 100 % of control (dose: 200.0 mg/kg/injection, schedule: Q01DX005 (ip), vehicle: saline with Tween-80).

`c1ccc(C2=NCC(c3ccccc3)(C3(c4ccccc4)SCCCS3)O2)cc1` (stereo unspecified): the T/C (dose: 100.0 mg/kg/injection, schedule: Q04DX003 (ip), vehicle: saline with Tween-80) is 95 % of control; the T/C (dose: 200.0 mg/kg/injection, schedule: Q04DX003 (ip), vehicle: saline with Tween-80) is 97 % of control; the T/C (dose: 400.0 mg/kg/injection, schedule: Q04DX003 (ip), vehicle: saline with Tween-80) was 91 % of control.

As to `CC(C)Nc1nc(N)nc(N)n1`, the T/C under setting [10] is 100 % of control, the T/C under setting [11] was 91 % of control and the T/C under setting [12] is 96 % of control.

`CCCCn1c(CCC)nc([N+](=O)[O-])c1Sc1ncn[nH]1`: the T/C reads like this: (dose: 25.0 mg/kg/injection, schedule: Q01DX005 (ip), vehicle: Klucel (hydroxypropylcellulose) (HPC)) 98 % of control; (dose: 50.0 mg/kg/injection, schedule: Q01DX005 (ip), vehicle: Klucel (hydroxypropylcellulose) (HPC)) 117 % of control and 118 % of control; (dose: 100.0 mg/kg/injection, schedule: Q01DX005 (ip), vehicle: Klucel (hydroxypropylcellulose) (HPC)) 114 % of control; (dose: 200.0 mg/kg/injection, schedule: Q01DX005 (ip), vehicle: Klucel (hydroxypropylcellulose) (HPC)) 122 % of control and 123 % of control.

In the case of `N#CC1(c2ccccc2)CCN(c2c3ccccc3nc3ccccc23)CC1`, the T/C was 103 % of control and 110 % of control under setting [7]; 109 % of control and 112 % of control under setting [8]; 117 % of control and 123 % of control (dose: 400.0 mg/kg/injection, schedule: Q04DX003 (ip), vehicle: Klucel (hydroxypropylcellulose) (HPC)).

For the molecule `C#CC(O)(c1ccccc1)c1ccc(N2CCOCC2)cc1` (stereo unspecified), the T/C runs as follows: (dose: 25.0 mg/kg/injection, schedule: Q01DX009 (ip), vehicle: saline with Tween-80) 95 % of control; under setting [10], 98 % of control; under setting [11], 98 % of control; under setting [12], 97 % of control.

In the case of `CCN(CC)CCOC1CCCCC1`, the T/C was 105 % of control (dose: 50.0 mg/kg/injection, schedule: Q01DX005 (ip), vehicle: saline) and 98 % of control (dose: 100.0 mg/kg/injection, schedule: Q01DX005 (ip), vehicle: saline).

On to `C=C(C)c1nc(Oc2ccccc2)nc(Oc2ccccc2)n1`, for which the T/C by setting is: under setting [9], 88 % of control; (dose: 400.0 mg/kg/injection, schedule: Q01DX001 (ip), vehicle: Klucel (hydroxypropylcellulose) (HPC)) 89 % of control.

`Cc1oc2ccccc2c(=O)c1Cn1cnc2ccc([N+](=O)[O-])cc21`: the T/C reads like this: under setting [4], 102 % of control; under setting [5], 93 % of control; under setting [6], 91 % of control.

For `CNc1nc2c(s1)c1c(O)c3c(O)c(C)c4c(c32)C(=O)C(C)(O/C=C/C(OC)C(C)C(OC(C)=O)C(C)C(O)C(C)C(O)C(C)/C=C/C=C(/C)C(=O)N1)O4` (stereo unspecified), the T/C reads like this: (dose: 25.0 mg/kg/injection, schedule: Q01DX009 (ip), vehicle: Klucel (hydroxypropylcellulose) (HPC)) 98 % of control; (dose: 50.0 mg/kg/injection, schedule: Q01DX009 (ip), vehicle: Klucel (hydroxypropylcellulose) (HPC)) 100 % of control; (dose: 100.0 mg/kg/injection, schedule: Q01DX009 (ip), vehicle: Klucel (hydroxypropylcellulose) (HPC)) 106 % of control; (dose: 200.0 mg/kg/injection, schedule: Q01DX009 (ip), vehicle: Klucel (hydroxypropylcellulose) (HPC)) 100 % of control.

As for `CCN1CC2(COC)CCC(OC)C34C5CC6C(OC)CC(O)(C5C6O)C(O)(C(OC)C23)C14` (stereo unspecified), the T/C (dose: 3.75 mg/kg/injection, schedule: Q01DX005 (ip), vehicle: saline + alcohol) is 96 % of control; the T/C (dose: 7.5 mg/kg/injection, schedule: Q01DX005 (ip), vehicle: saline + alcohol) is 100 % of control; the T/C (dose: 15.0 mg/kg/injection, schedule: Q01DX005 (ip), vehicle: saline + alcohol) was 102 % of control; the T/C (dose: 30.0 mg/kg/injection, schedule: Q01DX005 (ip), vehicle: saline + alcohol) was 92 % of control; the T/C (dose: 60.0 mg/kg/injection, schedule: Q01DX005 (ip), vehicle: saline + alcohol) is 99 % of control.

Turning to `CC1=CCC2CN(CCN(C)C)CC2C1` (stereo unspecified), the T/C runs as follows: under setting [14], 100 % of control; under setting [13], 99 % of control.

On to `CN1CCN(c2ccccc2N)CC1`, for which the T/C by setting is: (dose: 5.0 mg/kg/injection, schedule: Q01DX009 (ip), vehicle: saline with Tween-80) 104 % of control; (dose: 10.0 mg/kg/injection, schedule: Q01DX009 (ip), vehicle: saline with Tween-80) 100 % of control; (dose: 20.0 mg/kg/injection, schedule: Q01DX009 (ip), vehicle: saline with Tween-80) 95 % of control.
